Patent publication US6677366B2, “Methods, compositions and articles for reducing or preventing the effects of inflammation” (QLT Inc., priority 1997, dated 2004)

What was measured:
filtration bleb [1] = conditions: previous rabbit studies; cited from earlier work
patients [2] = conditions: human, in vivo; cited from earlier work
control eye = experiment: Toxicity: control eye examination and adverse events (Example 2); format: in vivo, rabbit; conditions: for Fibrin clot within the first four days: resolved without sequelae by end of first week
Text: (§1) The control eye received the same photosensitizer and irradiation subconjunctivally as the surgical eye, but without a fistula being created. The control eye was used to test toxicity and as a basis for detecting a decrease in IOP for the surgical eye. The time at which the BPD-MA was applied was varied, as follows:
(§2) Postoperatively at day 0 and every two days following surgery, the rabbits were examined with slit lamp biomicroscopy to evaluate filtration bleb extent, filtration bleb height, conjuctival erythema over the bleb, anterior chamber cell flare, and anterior chamber depth. Applanation tonometry to measure IOP following topical anesthesia. A subjective ocular discomfort assessment was also performed by determining animal comfort and eating habits, in accordance with the grading scale shown below:
In FIGS. 3, 4 and 5, a statistical difference was observed between groups (P ,0.001). The bleb height and extent, as well as other slit lamp characteristics, were analyzed by a chi-square test. Adverse events also were analyzed by a chi-square test. A Cox Proportional Hazard Model was used to evaluate for parameters that most accurately predicted filtration bleb survival on each examination day.

filtration bleb [3] = experiment: Times of PDT administration, full thickness filtration surgery (Example 2); format: in vivo, rabbit
Description: The photosensitizer used in the example was prepared as follows: A liposomally formulated benzoporphyrin derivative, monoacid ring A, BPD-MA or BPD-verteporfin was supplied by QLT PhotoTherapeutics, Inc. as a lyophilized powder and was reconstituted with sterile distilled water shortly before use. The BPD was reconstituted to 1.98 mg/mL was used to saturate the 3 mm cut end of a Weck cell. In control groups, the Weck cell was saturated with basic salt solution (“BSS”).
On day 0, full thickness filtration surgery was performed on one randomly selected eye in 48 rabbits, 12 in each of four groups. In each rabbit, the untreated other eye served as a control. The filtration procedure was performed in the following manner: Each animal was anesthetized with a mixture of ketamine and xylazine. A wire speculum was used to separate the eyelids. […] Following creation of the fornix-based flap, the Weck cell saturated with BPD-MA (or BSS placebo) was placed on the sclera posterior to the limbus where the fistula was to be created. The conjunctiva was draped over the Weck Cell. The Weck cell thus rested between the conjunctiva and sclera, also coming into contact with the episclera and Tenon's capsule, for two minutes. The Weck cell was then removed and the area was irrigated with BSS. Instruments and gloves were also rinsed before entering the eye, and a 1.0 mm trephine was used to enter the anterior chamber.
The conjunctival flap was then secured to the limbus using two 7-0 vicryl sutures. […] The light source was used at a maximum output ([…]), which provided a total dosage of approximately 7.2 J.
A drop of tobramycin was then placed into each eye following surgery. Tobramycin and prednisolone acetate were instilled in both eyes four times a day for one week following surgery.
as §1
BPD treatment at 48 hours post surgery consisted of the application of the 3 mm cut end of a Weck cell saturated with a 2 mg/mL aqueous solution of BPD-MA (or placebo) laid on the conjunctiva over the filtration bleb for two minutes, followed by washing out the excess photosensitizer and exposure to red LED light having a wavelength of 688 nm for one minute.
as §2
Bleb survival was assessed by the extent and height of the bleb and by IOP as compared with the control eye. The degree of the inflammatory response was determined by erythema over the filtration bleb and was scored on a scale of 0-3. Rabbits were terminated when bleb failure was noted, i.e., when the intraocular pressure in the surgical eye equaled that of the control eye and the filtration bleb was flat.

filtration bleb [4] = experiment: Pilot light dosing of topical BPD-MA PDT during filtration surgery (Example 1); format: in vivo, rabbit
Description: Filtration surgery was performed on one eye in six normal rabbits. A Weck cell sponge was saturated with a 2 mg/mL aqueous solution of the photosensitizer benzoporphyrin derivative monoacid ring A (BPD-MA, also known as “BPD-verteporfin”). During surgery, the saturated Weck cell was used to apply BPD-MA topically for two minutes to the sclera and conjunctiva in the surgical field. After washing out the excess drug with BSS, both the sclera and conjunctiva were exposed to red light having a wavelength of about 690 nm, which was delivered by a light emitting diode (“LED”) placed at a distance of about 1 cm from the tissue to be irradiated. Each of the six rabbits used in this experiment received a different dose of light, specifically, 0, 3, 6, 12, 18 and 24 J/cm^2 over a 30-second to 4-minute time period. The treated rabbits were followed for 11-12 days after surgery by determining filtration bleb height, bleb vascularity (indicative of inflammation), and reduction in intraocular pressure (“IOP”). The data obtained on day 5 and day 11 are shown below in Tables 1A and 1B respectively.

filtration bleb [5] = format: in vivo
Description: At day 7, one rabbit from each group and, following bleb failure, two rabbits from each group, were sacrificed to undergo histologic and transmission electron microscopic (“TEM”) analysis. Histologic evaluation was performed after first fixing the cadaver eyes with 10% buffered neutral formalin. The eyes were processed, sectioned, and then stained with hematoxylin and eosin, as well as Masson's Trichrome. The specimens were examined in a masked fashion by an independent observer.
Transmission electron microscopy was performed by fixing tissue samples in 2.5% glutaraldehyde buffered with 0.1 M cacodylate containing 7% sucrose. Tissues were post fixed for one hour with 2% osmium tetroxide and dehydrated through graded alcohol concentrations to 100% ethanol. The 2×5 mm tissue blocks were then infiltrated with catalyzed epoxy resin. Thick sections (0.5 μm) were cut and stained with toluidine blue and examined by light microscopy to determine appropriate areas. Thin section (80 nm) were then cut, picked up on copper grids, and stained with uranyl acetate and lead citrate for TEM evaluation. A Hitachi H7000 transmission electron microscope was used to examine these sections.

ocular fibroblasts = conditions: cited from earlier work
bleb scarring = conditions: in vivo; cited from earlier work
patients [6] = conditions: topical ointment postoperatively; cited from earlier work
[7] = postoperative day 5, irradiation time 30 seconds
[8] = postoperative day 5, irradiation time 1 minute
[9] = postoperative day 5, irradiation time 2 minutes
[10] = postoperative day 5, irradiation time 3 minutes
[11] = postoperative day 11, irradiation time 30 seconds
[12] = postoperative day 11, irradiation time 1 minute
[13] = postoperative day 11, irradiation time 2 minutes
[14] = postoperative day 11, irradiation time 3 minutes
[15] = day 7, eyes that received BPD at surgery

## CO[C@@]12[C@H](COC(N)=O)C3=C(C(=O)C(C)=C(N)C3=O)N1C[C@@H]1N[C@@H]12 [Mitomycin-C]
Filtration bleb [1]
  Filtration Bleb Survival (mean days ± SD): 34.8 ± 28.8 days
  Filtration Bleb Survival [range]: 6 to 23.2 days
Patients [2]
  Ocular hypotony (IOP less than 5 or 6 mm Hg), fraction of patients treated: ⅓
  Probability of late-onset bleb leaks: around 25%

## benzoporphyrin derivative monoacid ring A [BPD-MA]
Control eye; Group 2
  Fibrin clot within the first four days: three
Control eye; Group 3
  Fibrin clot within the first four days: three
Control eye; all groups
  Adverse events: few and not related specifically to the use of the photosensitizer
Control eye; control eye, P>0.05
  Anterior segment ocular exam of control eye, placebo versus BPD-treated: no differences between the placebo and BPD-treated eyes
Filtration bleb [3]; BPD and light at relatively low doses, especially during surgery
  Inflammatory response (erythema over the bleb): prevented the development of inflammation
Filtration bleb [3]; BPD and light during surgery (Groups 2 and 4)
  Bleb survival in comparison with placebo control or treatment only at 48 hours: prolonged bleb survival
Filtration bleb [3]; BPD given intraoperatively, P=0.057
  IOP (ANOVA): trend toward lower IOP
Filtration bleb [3]; Group 2: BPD treatment during surgery, placebo 48 hours post surgery
  Mean (±SD) filtration bleb survival time: 23.8 ± 12 days
Filtration bleb [3]; Group 3 (BPD only at 48 hours), FIG. 5
  Erythema over the bleb: higher inflammatory response
Filtration bleb [3]; Group 3: placebo during surgery, BPD treatment 48 hours post surgery
  Mean (±SD) filtration bleb survival time: 10.1 ± 9 days
Filtration bleb [3]; Group 4
  Effect of second treatment with BPD and light at 48 hours: did not appear to have any additional effect
Filtration bleb [3]; Group 4: BPD treatment during surgery and 48 hours post surgery
  Mean (±SD) filtration bleb survival time: 23.2 ± 8 days
Filtration bleb [3]; up to 12 days postoperatively, FIG. 3, FIG. 4
  Extent and height of the bleb: indicated the effectiveness of low-dose PDT treatment during surgery
Filtration bleb [3]; versus Table 2 literature values
  Filtration bleb survival compared to previous rabbit studies: prolonged the filtration bleb survival compared to normal controls, Ara-A and 5-fluorouracil
Filtration bleb [3]; versus literature
  Life of the filtration bleb compared with mitomycin C studies: longer that in some rabbits who received mitomycin C
Filtration bleb [4]; light doses 0-24 J/cm^2
  Survival of the filtration bleb versus light dose: longest in eyes treated with light at a medium range of doses
Filtration bleb [4]; [7]
  Bleb Height: Small
  Bleb Vascularity: Vascular
Filtration bleb [4]; postoperative day 5, irradiation time 30 seconds, 2 mg/mL topical 2 min, 690 nm light
  IOP Decrease: Minimal
Filtration bleb [4]; [8]
  Bleb Height: Maximum
  Bleb Vascularity: Avascular
Filtration bleb [4]; postoperative day 5, irradiation time 1 minute, 2 mg/mL topical 2 min, 690 nm light
  IOP Decrease: >20 mm Hg
Filtration bleb [4]; [9]
  Bleb Height: Maximum
  Bleb Vascularity: Avascular'
Filtration bleb [4]; postoperative day 5, irradiation time 2 minutes, 2 mg/mL topical 2 min, 690 nm light
  IOP Decrease: 20 mm Hg
Filtration bleb [4]; [10]
  Bleb Height: Small
  Bleb Vascularity: Vascular
Filtration bleb [4]; postoperative day 5, irradiation time 3 minutes, 2 mg/mL topical 2 min, 690 nm light
  IOP Decrease: 2.5 mm Hg
Filtration bleb [4]; postoperative day 5, irradiation time 4 minutes
  Bleb Vascularity: Vascular
Filtration bleb [4]; postoperative day 5, irradiation time 4 minutes, 2 mg/mL topical 2 min, 690 nm light
  IOP Decrease: 0-4 mm Hg
Filtration bleb [4]; [11]
  Bleb Height: Minimal
  Bleb Vascularity: Vascular
  IOP Decrease: 2.3 mm Hg
Filtration bleb [4]; [12]
  Bleb Height: Maximum
  Bleb Vascularity: Avascular
  IOP Decrease: >20 mm Hg
Filtration bleb [4]; [13]
  Bleb Height: Maximum
  Bleb Vascularity: Avascular'
  IOP Decrease: >20 mm Hg
Filtration bleb [4]; [14]
  Bleb Height: Low
  Bleb Vascularity: Vascular
  IOP Decrease: 3-4 mm Hg
Filtration bleb [4]; postoperative day 11, irradiation time 4 minutes
  Bleb outcome (rabbit sacrificed): bleb failure
Filtration bleb [5]; day 7, BPD only at day 2 (Group 3)
  Light microscopy of filtering bleb: increased lymph channels in addition to the fibroblasts, but no vascular proliferation
Filtration bleb [5]; [15]
  Light microscopy of filtering bleb: fibroblasts, vessels, lymph channels: no fibroblasts, vascular increase or lymphocytic channel increase
  Light microscopy of filtering bleb: lymphocytic response: mild lymphocytic response
Filtration bleb [5]; end of the study (three weeks postoperatively)
  Histology of eye fistulas: only a few lymphocytes and no proliferation of blood vessels at the fistula
Filtration bleb [5]; rabbit, in vivo
  Epithelium finding: thinned epithelium
Filtration bleb [5]; surgical or control eye
  Histologic and transmission electron microscopic analysis for toxicity: no evidence of toxicity or inflammation apart from the filtration site

## O=c1[nH]c(=O)n([C@H]2C[C@H](O)[C@@H](CO)O2)cc1F [floxuridine]
Ocular fibroblasts
  Potency relative to fluorouracil in long-term inhibition of ocular fibroblasts: about 100 times

## O=c1[nH]cc(F)c(=O)[nH]1 [5-Fluorouracil]
Filtration bleb [1]
  Filtration Bleb Survival (mean days ± SD): 19.5 ± 5.5 days
  Filtration Bleb Survival [range]: 14 to 25 days

## CC(C)(S)[C@@H](N)C(=O)O [D-penicillamine]
Bleb scarring
  Potency in animal studies: only limited potency

## Bleomycin
Filtration bleb [1]
  Filtration Bleb Survival (mean days ± SD): 25.5 ± 14.5 days
  Filtration Bleb Survival [range]: 21 to 50 days

## N#CCCN [BAPN, Beta-aminopropionitrite]
Patients [6]
  Patients with IOP kept below 22 mm Hg: 74%
Bleb scarring
  Potency in animal studies: only limited potency

## Nc1ncnc2c1ncn2[C@@H]1O[C@H](CO)[C@@H](O)[C@@H]1O [Ara-A]
Filtration bleb [1]
  Filtration Bleb Survival (mean days ± SD): 15.2 ± 1.8 days
